Reference: US10195044B2, “Intervertebral disc implant” (Sinai Health System, priority 2013, dated 2019)

System: sheep PDCs
Assay: ALP activity of predifferentiated chondrocytes cultured on CPP substrates

N[C@@H](Cc1cc(I)c(Oc2ccc(O)c(I)c2)c(I)c1)C(=O)O [T3, triiodothyronine]
ALP activity (3 nM T3, absence of dexamethasone, 1 week on CPP substrates): maximized | ALP activity level over 2 week culture (continuous 3 nM T3 treatment, maintained up to day 14): significantly increased by day 4
